Reference: US20160058743A1, “METHODS FOR TREATING SENSORIMOTOR IMPAIRMENTS ASSOCIATED WITH CERTAIN TYPES OF STROKE USING AMINOPYRIDINES” (ACORDA THERAPEUTICS, INC., priority 2013, published 2016)
Several values for one entry are separate records, joined by “and”; a condition that tells them apart may be missing. Identical values can stand only once. Entries after “also recorded” stand apart in the source; their conditions may differ.

Columns and labels:
[1] = test system: rats with middle cerebral artery occlusion (MCAO); experiment: Hindlimb placing test after MCAO; format: in vivo, Sprague Dawley rats
Text: In particular, the MCAO model in Sprague Dawley rats that was utilized in the experiments presented below mimics the conditions in human ischemic stroke. In this model, focal cerebral infarcts were made by permanent occlusion of the proximal right middle cerebral artery (MCA) using a modification of the method of Tamura et al. (No To Shinkei 1986; 38:747-51). Briefly, the temporalis muscle was bisected and reflected through an incision made midway between the eye and the ear canal. The proximal MCA was exposed through a subtemporal craniectomy without removing the zygomatic arch and without transecting the facial nerve.
In this experiment, Sprague Dawley rats were anesthetized, subjected to a surgery resulting in middle cerebral artery occlusion (MCAO), treated with and without 4-aminopyridine and behavioral assessments were performed as described below. Treatment was initiated at 4 weeks after stroke.
Dosing and Treatment: Rats were treated in accordance with the dosing schedule shown in Tables 2A, 2B, 3 and FIG. 2, with each Phase being a two week period of time. A solution of 4-AP was used in this experiment. Dosing was started at 4 weeks after ischemic event. 4-aminopyridine was dissolved in water for injection (WFI, Cellgro) and sterile filtered. Final concentrations of 0.315 mg/mL or 1.0 mg/mL of 4-aminopyridine were delivered at 2 mL/kg by gastric gavage, resulting in final doses of 0.63 mg/kg and 2 mg/kg respectively. Vehicle control treatment was WFI delivered at 2 mL/kg by gastric gavage. This study was divided into three treatment phases (1-3) with each randomized cohort of animals receiving a different dose level during each of the treatment phases. Starting on day 30 after MCAO (Day 30, start of phase 1), the animals received gavage dosing of solutions (2 mL/kg) approximately 12 hours apart, for a total of five doses. The same schedule was repeated with different treatment on Day 44 and Day 58 for phase 2 and 3 of the study, respectively. Animals were not treated during the 10 days between phases (washout period).
Treatment groups: Dosing was started 4 weeks after MCAO surgery. During these 4 weeks, weekly behavioral assessments, as defined below, were performed. Two dose levels of 4-AP plus vehicle control were assessed, with treatment starting at 4 weeks after ischemic event. All dosing was via gastric gavage, volume not to exceed 2 mL/kg. Animals were given the first dose and behavioral assessments were performed starting 60 minutes after dosing. Animals then received the second dose that day at the appropriate time and b.i.d (preferably every 12 hours) thereafter for 2 more days (3 total days of dosing, 5 total doses). One hour after the 5th dose, animals were subjected to behavioral assessments as defined below. Following the final behavioral assessment, drug was withdrawn for 10 or 11 days, behavior was re-assessed, and then animals were re-challenged with a cross-over treatment (Phase 2 of Table 2B) as described in Tables 2A, 2B and 3, followed by the same behavioral testing and dosing regimen. This cross-over was repeated one more time as well (Phase 3 of Table 2B) (see FIG. 2).
Behavioral test details: Behavioral evaluations were done by evaluators blinded to treatment assignment. Blinded assessments of sensorimotor function were performed just prior to MCAO surgery, 24 hours after MCAO surgery and weekly thereafter until the first phase of dosing using limb placing and body swing behavioral tests. As described above, behavioral assessments were timed exactly with dosing times. Animals were tested one hour after the 1st and 5th doses of each phase (i.e., Days 30 and 32 of the first phase, Days 44 and 46 of the second phase; and Days 58 and 60 of the third phase); animals were also tested during the washout periods on Days 42 and 56. Animals were given the first dose, behavioral assessments were performed starting 60 minutes later, and blood was collected 90 minutes after dosing. […]

Body weight of MCAO rats = format: in vivo, Sprague Dawley rats; settings: individual animals and group Mean
Text: Tables 16-18 show Cylinder Test Total Score (% of overall asymmetry) for each of Groups 1-3.

## Nc1ccncc1 [4-AP, 4-aminopyridine]
[1]; Example 2, low (0.63 mg/kg) or high (2 mg/kg) dose b.i.d. p.o., started 4 weeks post MCAO, dose-responsive, reversible
  Effect on hindlimb function (hindlimb placing test): effective to improve hindlimb function; also recorded: significant improvement
[1]; Group 1, D 32 post-MCAO, High 4-AP 2.0 mg/kg b.i.d. p.o., 1 h after 5th dose, group Mean, N=15, 0=normal, 6=maximally impaired
  Hindlimb Placing Total Score: 0.97
[1]; Group 2 mean, D 58 after MCAO, phase 3, high dose (sequence lvh, b238, inferred)
  Hindlimb Placing Total Score: 0.83
[1]; Group 2 mean, D 60 after MCAO, phase 3, high dose (sequence lvh, b238, inferred)
  Hindlimb Placing Total Score: 0.23
[1]; Group 3 mean, D 44 after MCAO, phase 2
  Hindlimb Placing Total Score: 0.90
[1]; Group 3 mean, D 46 after MCAO, phase 2
  Hindlimb Placing Total Score: 0.30
Body weight of MCAO rats; Group 1, D 1
  Weight: 291 g and 317 g (2×) and 306 g and 315 g and 323 g and 294 g
Body weight of MCAO rats; Group 1, D 7
  Weight: 328 g and 361 g and 359 g and 375 g and 369 g and 340 g and 366 g
Body weight of MCAO rats; Group 1, D 14
  Weight: 375 g and 403 g and 394 g and 421 g and 436 g and 382 g and 422 g
Body weight of MCAO rats; Group 1, D 21
  Weight: 399 g and 419 g and 416 g and 444 g and 494 g and 428 g and 469 g
Body weight of MCAO rats; Group 1, D 28
  Weight: 427 g and 451 g and 436 g and 484 g and 525 g and 457 g and 506 g
Body weight of MCAO rats; Group 1, D 30
  Weight: 425 g and 450 g and 435 g and 490 g and 544 g and 470 g and 512 g
Body weight of MCAO rats; Group 1, D 32
  Weight: 411 g and 441 g and 417 g and 470 g and 515 g and 454 g and 496 g
Body weight of MCAO rats; Group 1, D 42
  Weight: 448 g and 491 g and 449 g and 499 g and 565 g and 479 g and 543 g
Body weight of MCAO rats; Group 1, D 44
  Weight: 455 g and 501 g and 447 g and 511 g and 566 g and 480 g and 545 g and 454 g
Body weight of MCAO rats; Group 1, D 46
  Weight: 448 g and 490 g and 440 g and 494 g and 570 g and 488 g and 552 g
Body weight of MCAO rats; Group 1, D 56
  Weight: 476 g and 509 g and 452 g and 523 g and 612 g and 496 g and 576 g
Body weight of MCAO rats; Group 1, D 58
  Weight: 480 g and 520 g and 460 g and 530 g and 625 g and 512 g and 585 g
Body weight of MCAO rats; Group 1, D 60
  Weight: 475 g and 511 g and 456 g and 527 g and 615 g and 509 g and 587 g
Body weight of MCAO rats; Group 1, D −1
  Weight: 305 g and 317 g and 311 g and 332 g and 340 g and 324 g and 330 g and 313 g
